Measured values from the kinase profiling compilation of Christmann-Franck et al. (2016).

What was measured:
Assay in all cases: KINOMEscan competition binding
Conditions in all cases: compound 10.0 µM
PRKCI (human) = PRKCI (human) (UniProt P41743)
SGK3 (human) = SGK3 (human) (UniProt Q96BR1)
SBK1 (human) = SBK1 (human) (UniProt Q52WX2)
ERBB3 (human) = ERBB3 (human) (UniProt P21860)
STK39 (human) = STK39 (human) (UniProt Q9UEW8)
GRK7 (human) = GRK7 (human) (UniProt Q8WTQ7)
OXSR1 (human) = OXSR1 (human) (UniProt O95747)
CDK13 (human) = CDK13 (human) (UniProt Q14004)
Chain of CDK13 (human) (Q14004 whole entry, looked up): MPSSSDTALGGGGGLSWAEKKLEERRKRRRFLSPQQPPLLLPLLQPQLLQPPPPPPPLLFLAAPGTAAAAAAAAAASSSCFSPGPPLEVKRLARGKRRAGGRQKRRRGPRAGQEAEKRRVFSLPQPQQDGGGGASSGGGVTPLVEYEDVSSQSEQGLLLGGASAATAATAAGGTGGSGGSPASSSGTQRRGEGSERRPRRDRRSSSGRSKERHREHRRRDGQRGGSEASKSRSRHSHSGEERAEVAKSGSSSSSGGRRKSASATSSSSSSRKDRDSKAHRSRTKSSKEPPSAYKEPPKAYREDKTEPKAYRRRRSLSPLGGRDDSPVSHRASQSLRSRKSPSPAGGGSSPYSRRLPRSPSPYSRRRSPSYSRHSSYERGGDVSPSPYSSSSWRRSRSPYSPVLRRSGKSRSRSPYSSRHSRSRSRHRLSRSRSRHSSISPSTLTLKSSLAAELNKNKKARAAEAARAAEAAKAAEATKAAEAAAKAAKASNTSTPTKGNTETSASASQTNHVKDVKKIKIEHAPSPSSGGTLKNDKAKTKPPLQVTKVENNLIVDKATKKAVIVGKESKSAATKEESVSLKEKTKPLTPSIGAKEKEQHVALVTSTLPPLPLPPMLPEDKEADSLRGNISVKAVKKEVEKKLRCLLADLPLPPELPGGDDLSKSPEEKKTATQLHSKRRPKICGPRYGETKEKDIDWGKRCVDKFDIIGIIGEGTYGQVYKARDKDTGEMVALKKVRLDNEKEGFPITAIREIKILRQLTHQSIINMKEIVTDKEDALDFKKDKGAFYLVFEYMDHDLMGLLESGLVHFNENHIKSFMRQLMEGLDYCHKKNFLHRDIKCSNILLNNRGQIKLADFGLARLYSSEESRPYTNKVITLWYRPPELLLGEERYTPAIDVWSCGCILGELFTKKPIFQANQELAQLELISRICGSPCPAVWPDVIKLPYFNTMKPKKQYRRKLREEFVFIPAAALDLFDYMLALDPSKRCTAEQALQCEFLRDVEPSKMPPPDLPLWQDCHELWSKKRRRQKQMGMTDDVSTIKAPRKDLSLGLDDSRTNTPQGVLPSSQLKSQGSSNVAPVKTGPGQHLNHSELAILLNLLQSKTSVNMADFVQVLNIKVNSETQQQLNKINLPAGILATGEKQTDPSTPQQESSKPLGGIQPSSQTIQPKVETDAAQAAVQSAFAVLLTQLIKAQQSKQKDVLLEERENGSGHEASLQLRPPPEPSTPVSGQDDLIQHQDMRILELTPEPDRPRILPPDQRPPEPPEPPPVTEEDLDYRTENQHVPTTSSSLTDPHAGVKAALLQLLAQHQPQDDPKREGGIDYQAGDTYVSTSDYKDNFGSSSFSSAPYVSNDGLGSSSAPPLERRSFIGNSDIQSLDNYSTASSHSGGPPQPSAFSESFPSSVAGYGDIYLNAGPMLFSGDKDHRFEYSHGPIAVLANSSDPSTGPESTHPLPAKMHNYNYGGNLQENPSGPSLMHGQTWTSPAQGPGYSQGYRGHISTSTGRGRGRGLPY

PIP4K2C (human) = PIP4K2C (human) (UniProt Q8TBX8)
Chain of PIP4K2C (human) (Q8TBX8 whole entry, looked up): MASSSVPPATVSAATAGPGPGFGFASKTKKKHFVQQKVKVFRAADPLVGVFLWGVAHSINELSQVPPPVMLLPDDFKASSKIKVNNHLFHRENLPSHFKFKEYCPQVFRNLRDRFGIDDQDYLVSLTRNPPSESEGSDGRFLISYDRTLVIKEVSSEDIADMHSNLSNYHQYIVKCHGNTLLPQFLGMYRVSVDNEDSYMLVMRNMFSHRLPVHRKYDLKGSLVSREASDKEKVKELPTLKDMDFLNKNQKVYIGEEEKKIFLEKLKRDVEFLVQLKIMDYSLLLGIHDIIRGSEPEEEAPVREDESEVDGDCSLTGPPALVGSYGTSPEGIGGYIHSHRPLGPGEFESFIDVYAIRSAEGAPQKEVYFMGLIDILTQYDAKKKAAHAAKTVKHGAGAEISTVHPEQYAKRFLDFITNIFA

PIP5K1C (human) = PIP5K1C (human) (UniProt O60331)
Chain of PIP5K1C (human) (O60331 whole entry, looked up): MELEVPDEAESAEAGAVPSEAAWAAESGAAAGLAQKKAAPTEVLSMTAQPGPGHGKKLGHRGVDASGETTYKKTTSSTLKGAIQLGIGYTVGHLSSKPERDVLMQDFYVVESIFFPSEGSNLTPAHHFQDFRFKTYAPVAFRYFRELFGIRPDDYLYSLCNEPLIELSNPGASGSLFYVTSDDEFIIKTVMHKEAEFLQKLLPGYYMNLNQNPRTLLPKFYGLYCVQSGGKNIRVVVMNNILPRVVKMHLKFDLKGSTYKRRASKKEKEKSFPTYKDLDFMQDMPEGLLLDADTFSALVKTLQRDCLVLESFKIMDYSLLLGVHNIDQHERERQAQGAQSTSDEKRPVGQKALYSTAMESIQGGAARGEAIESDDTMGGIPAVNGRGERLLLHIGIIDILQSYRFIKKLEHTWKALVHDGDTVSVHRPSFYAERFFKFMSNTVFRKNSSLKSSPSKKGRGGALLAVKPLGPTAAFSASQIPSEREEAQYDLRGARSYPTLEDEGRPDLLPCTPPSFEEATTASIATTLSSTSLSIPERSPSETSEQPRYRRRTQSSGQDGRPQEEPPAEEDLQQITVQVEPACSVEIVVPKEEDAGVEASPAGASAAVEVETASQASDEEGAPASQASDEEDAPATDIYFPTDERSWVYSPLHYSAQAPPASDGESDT

MAST1 (human) = MAST1 (human) (UniProt Q9Y2H9)
DYRK2 (human) = DYRK2 (human) (UniProt Q92630)
Chain of DYRK2 (human) (Q92630 whole entry, looked up): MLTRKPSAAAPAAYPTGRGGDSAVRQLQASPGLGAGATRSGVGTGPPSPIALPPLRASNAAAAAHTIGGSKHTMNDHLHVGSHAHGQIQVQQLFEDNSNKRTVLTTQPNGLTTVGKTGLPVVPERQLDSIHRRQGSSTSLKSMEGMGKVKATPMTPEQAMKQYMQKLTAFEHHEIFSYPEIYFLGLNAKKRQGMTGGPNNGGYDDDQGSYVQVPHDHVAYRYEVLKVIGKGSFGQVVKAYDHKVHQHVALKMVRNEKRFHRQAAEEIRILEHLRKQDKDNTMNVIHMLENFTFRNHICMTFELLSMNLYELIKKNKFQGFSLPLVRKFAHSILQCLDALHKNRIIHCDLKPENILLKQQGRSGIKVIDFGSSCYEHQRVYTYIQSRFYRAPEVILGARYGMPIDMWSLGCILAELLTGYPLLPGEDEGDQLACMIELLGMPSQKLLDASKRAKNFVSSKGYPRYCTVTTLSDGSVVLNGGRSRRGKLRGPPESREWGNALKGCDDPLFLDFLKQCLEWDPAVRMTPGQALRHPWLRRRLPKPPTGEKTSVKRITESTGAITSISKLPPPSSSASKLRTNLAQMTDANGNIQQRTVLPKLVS

DSTYK (human) = DSTYK (human) (UniProt Q6XUX3)
DDR1 (human) = DDR1 (human) (UniProt Q08345)
NIM1 (human) = NIM1 (human) (UniProt Q8IY84)
[1] = system: EGFR (human), P00533 [746-750 del]
MAP3K13 (human) = MAP3K13 (human) (UniProt O43283)
HIPK4 (human) = HIPK4 (human) (UniProt Q8NE63)
ERN1 (human) = ERN1 (human) (UniProt O75460)
Chain of ERN1 (human) (O75460 whole entry, looked up): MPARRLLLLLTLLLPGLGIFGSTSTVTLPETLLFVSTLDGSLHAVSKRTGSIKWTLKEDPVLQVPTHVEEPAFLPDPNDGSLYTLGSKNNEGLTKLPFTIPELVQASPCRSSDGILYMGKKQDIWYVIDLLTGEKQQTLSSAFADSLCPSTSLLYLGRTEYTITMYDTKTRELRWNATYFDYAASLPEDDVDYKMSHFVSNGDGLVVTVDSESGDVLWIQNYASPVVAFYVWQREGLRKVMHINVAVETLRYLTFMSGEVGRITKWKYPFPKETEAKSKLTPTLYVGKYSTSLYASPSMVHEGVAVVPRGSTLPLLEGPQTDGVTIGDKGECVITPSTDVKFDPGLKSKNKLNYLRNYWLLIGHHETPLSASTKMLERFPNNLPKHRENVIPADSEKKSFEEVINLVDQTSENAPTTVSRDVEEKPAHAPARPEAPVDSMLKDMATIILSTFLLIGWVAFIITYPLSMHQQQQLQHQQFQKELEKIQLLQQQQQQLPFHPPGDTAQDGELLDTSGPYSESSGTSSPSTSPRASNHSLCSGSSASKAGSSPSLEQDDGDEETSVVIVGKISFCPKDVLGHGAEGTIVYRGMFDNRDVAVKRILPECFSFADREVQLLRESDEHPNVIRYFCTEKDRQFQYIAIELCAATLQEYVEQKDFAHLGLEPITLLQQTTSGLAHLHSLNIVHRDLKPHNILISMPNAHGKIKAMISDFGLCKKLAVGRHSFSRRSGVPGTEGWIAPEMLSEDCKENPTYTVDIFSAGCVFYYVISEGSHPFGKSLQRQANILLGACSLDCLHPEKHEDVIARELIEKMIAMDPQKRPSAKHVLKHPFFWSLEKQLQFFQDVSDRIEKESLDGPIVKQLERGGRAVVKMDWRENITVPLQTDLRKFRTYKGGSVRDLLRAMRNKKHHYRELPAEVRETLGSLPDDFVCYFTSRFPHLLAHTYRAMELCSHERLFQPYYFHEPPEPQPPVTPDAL

NEK3 (human) = NEK3 (human) (UniProt P51956)
ICK (human) = ICK (human) (UniProt Q9UPZ9)
CRK2 (P.falciparum) = CRK2 (P.falciparum) (UniProt P61075)
Chain of CRK2 (P.falciparum) (P61075 whole entry, looked up): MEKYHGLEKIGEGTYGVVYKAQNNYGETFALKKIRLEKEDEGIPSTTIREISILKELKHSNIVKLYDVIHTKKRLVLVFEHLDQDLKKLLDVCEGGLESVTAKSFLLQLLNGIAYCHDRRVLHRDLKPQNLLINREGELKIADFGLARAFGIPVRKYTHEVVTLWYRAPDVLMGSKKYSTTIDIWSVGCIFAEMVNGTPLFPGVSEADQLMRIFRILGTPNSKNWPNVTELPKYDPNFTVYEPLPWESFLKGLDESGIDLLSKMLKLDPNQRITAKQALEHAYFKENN

[2] = system: FLT3 (human), P36888 [K663Q]
CPK1 (P.falciparum) = system: CPK1 (P.falciparum)
[3] = system: EGFR (human), P00533 [G719S]
DYRK1A (human) = DYRK1A (human) (UniProt Q13627)
CDK4 CCND3 (human) = CDK4 CCND3 (human) (UniProt P11802+P30281)
EGFR (human) = EGFR (human) (UniProt P00533)
KIT (human) = KIT (human) (UniProt P10721)
CDKL3 (human) = CDKL3 (human) (UniProt Q8IVW4)
PIK3C2G (human) = PIK3C2G (human) (UniProt O75747)
RPS6KB1 (human) = RPS6KB1 (human) (UniProt P23443)
YSK4 (human) = YSK4 (human) (UniProt Q56UN5)
TIE1 (human) = TIE1 (human) (UniProt P35590)
BRAF (human) = BRAF (human) (UniProt P15056)
[4] = system: PIK3CA (human), P42336 [C420R]
[5] = system: PIK3CA (human), P42336 [H1047Y]
PIK3CG (human) = PIK3CG (human) (UniProt P48736)
[6] = system: PIK3CA (human), P42336 [E545K]
[7] = system: PIK3CA (human), P42336 [Q546K]

Chain of GRK7 (human) (Q8WTQ7 whole entry, looked up): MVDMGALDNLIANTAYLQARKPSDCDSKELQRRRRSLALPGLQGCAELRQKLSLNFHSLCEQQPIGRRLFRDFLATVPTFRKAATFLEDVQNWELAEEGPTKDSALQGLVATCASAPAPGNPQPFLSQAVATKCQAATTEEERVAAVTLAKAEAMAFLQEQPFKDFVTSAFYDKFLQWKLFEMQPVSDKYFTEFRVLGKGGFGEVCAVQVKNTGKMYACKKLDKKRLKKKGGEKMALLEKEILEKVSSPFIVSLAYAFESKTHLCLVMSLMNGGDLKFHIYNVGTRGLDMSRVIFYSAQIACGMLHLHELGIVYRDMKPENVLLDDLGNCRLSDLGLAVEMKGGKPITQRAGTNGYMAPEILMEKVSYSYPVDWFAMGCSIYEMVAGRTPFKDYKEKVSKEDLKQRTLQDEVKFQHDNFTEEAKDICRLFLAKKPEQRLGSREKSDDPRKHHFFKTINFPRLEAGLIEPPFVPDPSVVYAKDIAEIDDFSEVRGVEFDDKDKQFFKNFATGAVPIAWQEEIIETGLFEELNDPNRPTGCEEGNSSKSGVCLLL

Row | SMILES | kinase still bound, per cent of control (PRKCI (human)) [%] | kinase still bound, per cent of control (SGK3 (human)) [%] | kinase still bound, per cent of control (SBK1 (human)) [%] | kinase still bound, per cent of control (ERBB3 (human)) [%] | kinase still bound, per cent of control (STK39 (human)) [%] | kinase still bound, per cent of control (GRK7 (human)) [%] | kinase still bound, per cent of control (OXSR1 (human)) [%] | kinase still bound, per cent of control (CDK13 (human)) [%] | kinase still bound, per cent of control (PIP4K2C (human)) [%] | kinase still bound, per cent of control (PIP5K1C (human)) [%] | kinase still bound, per cent of control (MAST1 (human)) [%] | kinase still bound, per cent of control (DYRK2 (human)) [%] | kinase still bound, per cent of control (DSTYK (human)) [%] | kinase still bound, per cent of control (DDR1 (human)) [%] | kinase still bound, per cent of control (NIM1 (human)) [%] | kinase still bound, per cent of control (MAP3K13 (human)) [%] | kinase still bound, per cent of control (HIPK4 (human)) [%] | kinase still bound, per cent of control (ERN1 (human)) [%] | kinase still bound, per cent of control (NEK3 (human)) [%] | kinase still bound, per cent of control (ICK (human)) [%] | other results
1 | Cc1cc([C@@H](C)Nc2ccccc2C(=O)O)c2nc(N3CCOCC3)cc(=O)n2c1 | 100 | 86 | 100 | 100 | 100 | 57 | 100 | 88 | 58 | 63 | 100 | 89 | 100 | 100 | 100 | 100 | 100 | 91 | 100 | 100 | kinase still bound, per cent of control [1]: 100%; kinase still bound, per cent of control (CRK2 (P.falciparum)): 98%; kinase still bound, per cent of control [2]: 13%; kinase still bound, per cent of control (CPK1 (P.falciparum)): 62%; kinase still bound, per cent of control [3]: 98%; kinase still bound, per cent of control (DYRK1A (human)): 90%; kinase still bound, per cent of control (CDK4 CCND3 (human)): 100%; kinase still bound, per cent of control (EGFR (human)): 96%; kinase still bound, per cent of control (KIT (human)): 91%; kinase still bound, per cent of control (CDKL3 (human)): 90%; kinase still bound, per cent of control (PIK3C2G (human)): 7%; kinase still bound, per cent of control (RPS6KB1 (human)): 72%; kinase still bound, per cent of control (YSK4 (human)): 100%; kinase still bound, per cent of control (TIE1 (human)): 100%; kinase still bound, per cent of control (BRAF (human)): 100%
2 | N#Cc1c(NC(=O)c2cccc3ccccc23)sc2c1CCCC2 | 63 | 92 | 100 | 100 | 100 | 88 | 100 | 87 | 100 | 100 | 100 | 100 | 100 | 71 | 100 | 83 | 100 | 90 | 100 | 81 | kinase still bound, per cent of control [4]: 92%; kinase still bound, per cent of control [5]: 100%; kinase still bound, per cent of control (PIK3CG (human)): 99%; kinase still bound, per cent of control (CRK2 (P.falciparum)): 100%; kinase still bound, per cent of control [2]: 93%; kinase still bound, per cent of control [6]: 88%; kinase still bound, per cent of control (CPK1 (P.falciparum)): 81%; kinase still bound, per cent of control (DYRK1A (human)): 100%; kinase still bound, per cent of control (CDK4 CCND3 (human)): 84%; kinase still bound, per cent of control (CDKL3 (human)): 82%; kinase still bound, per cent of control (PIK3C2G (human)): 87%; kinase still bound, per cent of control (RPS6KB1 (human)): 90%; kinase still bound, per cent of control [7]: 79%; kinase still bound, per cent of control (YSK4 (human)): 100%; kinase still bound, per cent of control (TIE1 (human)): 95%; kinase still bound, per cent of control (BRAF (human)): 100%
3 | O=C(NOC[C@H](O)CO)c1ccc(F)c(F)c1Nc1ccc(I)cc1F | 70 | 89 | 100 | 100 | 96 | 100 | 100 | 84 | 100 | 100 | 100 | 95 | 100 | 50 | 100 | 86 | 100 | 97 | 100 | 84 | kinase still bound, per cent of control [4]: 50%; kinase still bound, per cent of control [5]: 57%; kinase still bound, per cent of control (PIK3CG (human)): 88%; kinase still bound, per cent of control (CRK2 (P.falciparum)): 100%; kinase still bound, per cent of control [6]: 53%; kinase still bound, per cent of control (CPK1 (P.falciparum)): 78%; kinase still bound, per cent of control (DYRK1A (human)): 100%; kinase still bound, per cent of control (CDK4 CCND3 (human)): 84%; kinase still bound, per cent of control (KIT (human)): 92%; kinase still bound, per cent of control (CDKL3 (human)): 98%; kinase still bound, per cent of control (PIK3C2G (human)): 48%; kinase still bound, per cent of control (RPS6KB1 (human)): 100%; kinase still bound, per cent of control [7]: 41%; kinase still bound, per cent of control (YSK4 (human)): 100%; kinase still bound, per cent of control (TIE1 (human)): 54%; kinase still bound, per cent of control (BRAF (human)): 98%
